Bounds are passed on as bounds.

The assay has as its system Arabidopsis thaliana. The experiment in a line: Herbicidal activity against Arabidopsis thaliana after 3 weeks. In kind it is functional.
On to `CCC(N)C(=O)CCCCCC(=O)O.Cl` (stereo not given), for which the GR50 came to 43 ppm.

In turn, `CCC(N)/C(CCCCCC(=O)O)=N/O.Cl` (stereo not given) showed a GR50 above 780 ppm.

Compound `CC(O)C(N)C(=O)CCCCCC(=O)O.Cl` (stereo not given) displayed a GR50 of 250 ppm.

The compound `COC(=O)CCCCCC(=O)C(N)CO.Cl` (stereo not given) registered a GR50 of 53 ppm.

The compound `Cl.Cl.NCC(N)CCCCCC(=O)O` (stereo not given) came in with a GR50 of 53 ppm.

The compound `CC(C)C(N)/C(CCCCCC(=O)O)=N/O.Cl` (stereo not given) gave a GR50 above 780 ppm.

Compound `CSCCC(N)C(N)CCCCCC(=O)O.Cl.Cl` (stereo not given) returned a GR50 of 0.78 ppm.

In turn, `Cl.NC(CS)C(=O)CCCCCC(=O)O` (stereo not given) displayed a GR50 above 780 ppm.

On to `COC(=O)CCCCC/C(CN)=N\O.Cl`, for which the GR50 is 53 ppm.

As for `O=C(O)CCCCCC1CNC(=O)N1` (racemic), the GR50 is 35 ppm.

Compound `CSCC(N)C(=O)CCCCCC(=O)O.Cl` (stereo not given) gave a GR50 above 780 ppm.

Take `CSCCC(N)C(=O)CCCCCC(=O)O.Cl` (stereo not given): the GR50 was above 780 ppm.

Regarding `CCC1NC(=O)NC1CCCCCC(=O)O` (stereo not given), the GR50 is recorded as 35 ppm.

Compound `CSCC1NC(=O)NC1CCCCCC(=O)O` (stereo not given) had a GR50 of 46 ppm.

For `COC(=O)CCCCCC(=O)C(N)CSC.Cl` (stereo not given), the GR50 was 250 ppm.

In turn, `Cl.NCC(=O)CCCCCC(=O)O` had a GR50 of 8 ppm.

Regarding `CCC(N)C(N)CCCCCC(=O)O.Cl.Cl` (stereo not given), the GR50 is reported as 76 ppm.

`COC(=O)CCCCCC(=O)C(N)C(C)O.Cl` (stereo not given) had a GR50 of 100 ppm.

On to `Cl.NC/C(CCCCCC(=O)O)=N/O`, for which the GR50 came out at 40 ppm.

Consider `CSCCC1NC(=O)NC1CCCCCC(=O)O` (stereo not given), for which the GR50 is above 780 ppm.

Turning to `CC(C)C(N)C(=O)CCCCCC(=O)O.Cl` (stereo not given), the GR50 was determined as 37 ppm.

Regarding `COC(=O)CCCCCC1NC(=S)NC1CCSC` (stereo not given), the GR50 was above 780 ppm.

In turn, `Cl.NC(CO)C(=O)CCCCCC(=O)O` (stereo not given) showed a GR50 of 100 ppm.

For `COC(=O)CCCCCC1NC(=S)NC1CSC` (stereo not given), the GR50 worked out at 44 ppm.

In turn, `COC(=O)CCCCCC(=O)C(N)CS.Cl` (stereo not given) showed a GR50 of 120 ppm.

(Values after ChEMBL document CHEMBL3046357, “Inhibitors of biotin biosynthesis as potential herbicides” (2004).)
